Results on nine compounds are retold here after patent US20220162191A1, “SMALL MOLECULE MODULATORS OF IL-17” (LEO PHARMA A/S, priority 2019, published 2022).

The target in this test is T1, human IL-17AA (Homo sapiens, UniProt Q16552).
T1 construct: host or cells: HEK (human embryonic kidney) cells
T1 sequence (Q16552 24-155) 1: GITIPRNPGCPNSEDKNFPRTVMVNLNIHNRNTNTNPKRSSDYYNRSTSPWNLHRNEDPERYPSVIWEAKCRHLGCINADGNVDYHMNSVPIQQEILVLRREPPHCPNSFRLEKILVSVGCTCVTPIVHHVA
T1 sequence (Q16552 24-155) 2: T1 sequence (Q16552 24-155) 1
Put plainly: IL-8 release assay in human epithelial keratinocytes adult (HEKa). As to conditions: 3 ng/ml human IL-17AA + 10 ng/ml human TNFalpha, 68-72 h, IL-8 by HTRF, read-out: Rel EC50 L-8 release assay. It is filed as cell-based. A digest of the protocol: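 Adult human keratinocytes in Epilife with HKGS minus hydrocortisone, treated with compound then stimulated with final 3 ng/ml HEK-derived human IL-17AA plus 10 ng/ml TNF-alpha for 68–72 h at 37 °C; TNF-alpha alone defines 100% inhibition. Secreted IL-8 by HTRF; relative IC50 and Emax from four-parameter fits.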
(In general: In TR-FRET formats the signal depends on donor and acceptor labels being close together.)

What is called EC50 is the midpoint of the concentration-response curve.

For `Cc1nocc1C(=O)NC(Cc1cc(-c2ccc(=O)n(C3CC3)c2)ccc1Cl)C(=O)Nc1ccc(-c2nncn2C)cc1` (stereo not drawn) [Example 63, N-[1-[[2-chloro-5-(1-cyclopropyl-6-oxo-3-pyridyl)phenyl]methyl]-2-[4-(4-methyl-1,2,4-triazol-3-yl)anilino]-2-oxo-ethyl]-3-methyl-isoxazole-4-carboxamide], the EC50 is over 1000 nM.

Consider `Cc1cnn(C)c1-c1ccc(NC(=O)[C@@H](NC(=O)C2(F)CC2)[C@@H]2CCc3ccc(-c4cncc(N5C[C@@H]6C[C@H]5CO6)n4)cc32)cc1` [Example 379, N-[(1S)-2-[4-(2,4-dimethylpyrazol-3-yl)anilino]-1-[(1R)-6-[6-[(1S,4S)-2-oxa-5-azabicyclo[2.2.1]heptan-5-yl]pyrazin-2-yl]indan-1-yl]-2-oxo-ethyl]-1-fluoro-cyclopropanecarboxamide], for which the EC50 is under 100 nM.

On to `Cn1cnnc1-c1ccc(NC(=O)C(Cc2cc(-c3cccc(OC4CCC4)c3)ccc2Cl)NC(=O)c2ccnn2C)cc1` (stereo not drawn) [Example 145, N-[1-[[2-chloro-5-[3-(cyclobutoxy)phenyl]phenyl]methyl]-2-[4-(4-methyl-1,2,4-triazol-3-yl)anilino]-2-oxo-ethyl]-2-methyl-pyrazole-3-carboxamide], for which the EC50 was in the range of 100 to 1000 nM.

For `CC(C)n1cc(-c2cccc(C(c3ccccc3)C(NC(=O)OC3CC3)C(=O)Nc3ccc(-c4cncn4C)cc3)c2)ccc1=O` (single isomer, unassigned; diastereomer 2) [Example 239, cyclopropyl N-[1-[[3-(1-isopropyl-6-oxo-3-pyridyl)phenyl]-phenyl-methyl]-2-[4-(3-methylimidazol-4-yl)anilino]-2-oxo-ethyl]carbamate (Diastereomer 2)], the EC50 fell in the range of 100 to 1000 nM.

As for `Cc1nc(-c2ccc3c(c2)[C@H]([C@H](NC(=O)C2(F)CC2)C(=O)Nc2ccc(-c4c(C)n[nH]c4C)cc2)CC3)cc(N2C[C@@H]3C[C@H]2CO3)n1` [Example 366, N-[(1S)-2-[4-(3,5-dimethyl-1H-pyrazol-4-yl)anilino]-1-[(1R)-6-[2-methyl-6-[(1S,4S)-2-oxa-5-azabicyclo[2.2.1]heptan-5-yl]pyrimidin-4-yl]indan-1-yl]-2-oxo-ethyl]-1-fluoro-cyclopropanecarboxamide], the EC50 lay within 100 to 1000 nM.

Regarding `Cc1nocc1C(=O)NC(Cc1cc(-c2ccc(=O)n(C(C)C)c2)ccc1Cl)C(=O)Nc1ccc(-c2cn[nH]c2)cc1` (stereo not drawn) [Example 80, N-[1-[[2-chloro-5-(1-isopropyl-6-oxo-3-pyridyl)phenyl]methyl]-2-oxo-2-[4-(1H-pyrazol-4-yl)anilino]ethyl]-3-methyl-isoxazole-4-carboxamide], the EC50 is 100 to 1000 nM.

For the compound “N-[(1S)-2-[6-chloro-3-(1-isopropyl- 6-oxo-3-pyridyl)cyclohexa-2,4-dien- 1-yl]-1-[[4-(3-methylimidazol-4- yl)phenyl]carbamoyl]propyl]-2- methyl-pyrazole-3-carboxamide [Example 54]”, the 50% effective concentration (EC50) was 100 to 1000 nM.

In the case of `Cn1cncc1-c1ccc(NC(=O)C(Cc2cc(-c3ccnc(N4CC[C@H]4CO)c3)ccc2Cl)NC(=O)c2ccnn2C)cc1` (stereo partly drawn) [Example 188, N-[1-[[2-chloro-5-[2-[(2S)-2-(hydroxymethyl)azetidin-1-yl]-4-pyridyl]phenyl]methyl]-2-[4-(3-methylimidazol-4-yl)anilino]-2-oxo-ethyl]-2-methyl-pyrazole-3-carboxamide], the EC50 lay within 100 to 1000 nM.

As to `Cc1[nH]ncc1-c1ccc(NC(=O)C(Cc2cc(-c3ccc(=O)n(C(C)C)c3)ccc2Cl)NC(=O)c2ccnn2C)cc1` (stereo not drawn) [Example 89, N-[1-[[2-chloro-5-(1-isopropyl-6-oxo-3-pyridyl)phenyl]methyl]-2-[4-(5-methyl-1H-pyrazol-4-yl)anilino]-2-oxo-ethyl]-2-methyl-pyrazole-3-carboxamide], the EC50 lay within 100 to 1000 nM.
